Assay results as given in patent US11998549B2, “Methods of treating a vascular leakage-associated disease or disorder” (UNITY HEALTH TORONTO, priority 2019, dated 2024).
“Also recorded” adds a separate entry of the source.

Legend:
[1] = system: IL-1, IL-6, TNFα and IL811 transcript levels; test: Quantitative RT-PCR of pro-inflammatory cytokines in zebrafish sepsis model; type: in vivo; settings: 3 dpf larvae, LPS 27 μg/ml (Salmonella) + 1 μM UNC0642, 24 h
Description: Quantitative reverse transcription polymerase chain reaction (RT-PCR) was used to assess relative expression of cytokines (an average of 3 trials, each trial with a pool of 20 larvae/treatment) and cellular junction proteins (an average of 3 trials, each trial with a pool of 20 larvae/treatment), using elongation factor 1 a (EF1a) as the housekeeping gene control. […] UNC0642 reverses LPS induced reduction in the transcript levels of cellular junction proteins, namely occludin a, occludin b and ZO-1. UNC0642 also upregulates cellular junction protein transcript levels of occludin b, claudin 5a, claudin 5b and claudin 2, potentially improving vascular stability.
RNA extraction and cDNA synthesis. Wildtype zebrafish larvae (3 dpf) were exposed to Vehicle, LPS (27 μg/ml; LPS from Salmonella) or LPS+1 μM UNC0642 by static immersion for 24 h. Total RNA was extracted from these larvae (pool of 20 larvae/treatment) using the RNeasy extraction kit (Qiagen™, Mississauga, Ontario, Canada) and treated with DNase. The concentration of total RNA was determined spectrophotometrically at 260/280 nm using a NanoDrop™ spectrophotometer. […]
PCR conditions. […] The primers are not listed, since suitable primers will be readily apparent to the skilled person.

[2] = system: LPS induced zebrafish sepsis model; test: Survival in LPS induced zebrafish sepsis model; type: in vivo; settings: 24 h
Protocol: An LPS induced zebrafish sepsis model which mimics the hallmarks of human sepsis was developed (Philip et al., 2017). Zebrafish show varied susceptibility and responsiveness to LPS from different bacterial strains. Exposure of zebrafish larvae at 3 days post-fertilization (dpf) to two types of LPS (LPS from Escherichia coli 0111:B4 (Sigma) at 100 μg/ml for 5-6 hrs; or LPS from Salmonella at 27 μg/ml for 24 hrs) were both effective in inducing tail fin swelling, increased ROS production, increased vascular leakage and increased mortality.
Survival analyses for zebrafish (wildtype) exposed to various concentrations of LPS (Escherichia coli 0111:B4; Sigma) was performed. 3 dpf larvae were exposed to LPS by immersion technique. Larvae were treated with 10, 25, 50, 125, 250, 500, 1000, 2500, 5000 or 10000 nM UNC0642 along with 100 μg/ml LPS (LPS was dissolved in eggwater), by static immersion at 28.5° C. for 24 h in a total volume of 2 mL per treatment. Control larvae were exposed to egg water. Survival numbers were recorded and EC50s calculated.
3 dpf larvae were exposed to LPS by immersion technique. […] Control larvae were exposed to egg water. Survival numbers were recorded and EC50s calculated. The percentage (%) of embryos showing vascular leakage was also recorded and 1050s calculated.

H3K9me2 in HPMECs = test: H3K9me2 Western blot in LPS-treated HPMECs; type: cell-based, human; settings: LPS 1 ug/ml +/- UNC0642 2.5 nM, 24 hours
[3] = system: H3K9me2 in venous endothelial cell nuclei; test: H3K9me2 immunofluorescence in zebrafish larvae; type: in vivo; settings: LPS 100 μg/ml + 1 μM UNC0642, 5 h
Protocol: 3 dpf Tg eGFP) larvae were exposed to Vehicle, LPS (100 μg/ml) or LPS+1 μM UNC0642 by static immersion for 5 h at 28.5° C. Embryos were fixed overnight at 4° C. in 2% PFA in PBST (PBS+0.1% Tween 20). Embryos were then washed 4×5 min in PBST at room temperature (RT) and permeabilized for 30 min at RT in PBST+0.5% TritonX-100. Embryos were then blocked in PBST+0.1% TritonX-100+10% NGS+1% BSA for 2 h at RT. Embryos were incubated with primary antibodies (Mouse monoclonal (mAbcam 1220) to Histone H3 (di-methyl K9) in blocking solution (1:200) overnight at 4° C. Embryos were then washed 6×20 min in PBST at RT and then incubated with the secondary antibody (Goat anti-mouse IgG Alexa fluor 647; 1:1000) in blocking solution for 2 h at RT. Embryos were finally washed 3×10 min in PBST at RT. Images were taken with a Zeiss Confocal Microscope.

[4] = system: LPS-induced ROS production; test: ROS production (DCFH-DA) in LPS-treated zebrafish larvae; type: in vivo; settings: LPS 100 μg/ml + 1 μM UNC0642, 5 h
Protocol: ROS production was visualised using 2′, 7′-dichlorodihydrofluorescein diacetate (DCFH-DA; Sigma-Aldrich), a ROS indicator. Wildtype zebrafish were exposed to Vehicle, LPS (100 μg/ml) or LPS+1 μM UNC0642 by static immersion for 5 h at 28.5° C. and then incubated along with 100 μM DCFH-DA for 1 h at 28.5° C. in the dark, and washed three times (5 min each) with embryo water. DCFH-DA diffuses into cells and is deacetylated by cellular esterases to non-fluorescent 2′, 7′-Dichlorodihydrofluorescin (DCFH), which is rapidly oxidized to highly fluorescent 2′, 7′-Dichlorofluorescein (DCF) by ROS. The fluorescence intensity is propor-tional to the ROS levels within the cell cytosol. Photographs were acquired using a Leica DFC 300-FX camera and a Leica fluorescence microscope, and were processed with Fiji analysis software. Corrected total fluorescence (CTF) was calculated using the following formula: CTF=Integrated density−(Area of selected cell×Mean fluorescence of background readings) H3K9me2 Immunofluorescence Analysis

COc1cc2c(NC3CCN(C(C)C)CC3)nc(N3CCC(F)(F)CC3)nc2cc1OCCCN1CCCC1 [UNC0642, 2-(4,4-Difluoropiperidin-1-yl)-6-methoxy-N-[1-(propan-2-yl)piperidin-4-yl]-7-(3-(pyrrolidin-1-yl)propoxy]quinazolin-4-amine]
LPS induced increases in transcript levels of pro-inflammatory cytokines IL-1, IL-6, TNFα and IL811 [1]: significantly mitigates
EC50 ([2]; Escherichia coli, in Danio rerio, read-out: EC50 for improved survival of septic zebrafish larvae): 789 nM
Rescue of sepsis-associated mortality ([2]; comparison of UNC0642 and A366, zebrafish larvae, 27 μg/ml LPS): able to rescue
H3K9me2 by Western Blot (H3K9me2 in HPMECs): decreased H3K9me2; also recorded: reduction in this H3K9me2
LPS induced increased H3K9me in venous endothelial cell nuclei [3]: rescues LPS induced increased H3K9me
Reduction of LPS-induced ROS production [4]: 40%
